Assay results published in patent US9745289B2, “Aldosterone synthase inhibitors” (Boehringer Ingelheim International GmbH, priority 2014, dated 2017).

The compounds below were run against cortisol synthase (CYP11B1) (Macaca fascicularis, UniProt A0A2K5ULY1) (assay: Inhibition of Cortisol Synthesis). Conditions: cynomolgus adrenal gland mitochondria; 150 units of CYP11B1, 11-deoxycortisol as substrate, cortisol measured as product.
Format: biochemical, cynomolgus monkey
Procedure: The aldosterone synthase and cortisol synthase inhibition assays employ cynomolgus adrenal gland mitochondria as the source of aldosterone synthase (CYP11B2) and cortisol synthase (CYP11B1). […] Activity of CYP11B2 and CYP11B1 in these preparations is defined as the amount of enzyme that generates 1 pmol of product in one hour under the conditions described.
Assays are performed in 96-well format in a final volume of 60 μL/well, containing 100 mM potassium phosphate, pH 7.4, 1% (v/v) DMSO, and additionally, 2 μM of corticosterone and 50 units of CYP11B2 activity. Reactions are started by the addition of NADPH to 1 mM and allowed to proceed for 90 minutes at 37° C. Reactions are terminated by the addition of 60 μL of MeCN containing an internal standard for mass spectrometry. One hundred microliters are then transferred to a glass filter plate and centrifuged at 570×g for 5 minutes and the filtrate is collected. Reaction product aldosterone is quantified by mass spectrometry. To determine the assay blank value (0% activity), NADPH is omitted from some reactions.
Dose dependent inhibition is quantified by the inclusion of compound at various concentrations. Maximum activity (100%) is defined by reactions containing NADPH, but without compound.
Assays are performed as for aldosterone synthase except for the use of 150 units of CYP11B1, 11-deoxycortisol as substrate and cortisol measured as product.

| SMILES | IC50 |
| --- | --- |
| NC(=O)c1cccc2c1OCC(c1cncc(-c3ccc(S(N)(=O)=O)cc3)c1)O2 (single isomer, unassigned) [Cpd 16A, 2-[5-(4-Sulfamoyl-phenyl)-pyridin-3-yl]-2,3-dihydro-benzo[1,4]dioxine-5-carboxylic acid amide] | 5.2 µM |
| NC(=O)c1cccc2c1OCC(c1cncc(-c3ccc(S(N)(=O)=O)cc3)c1)O2 (single isomer, unassigned) [Cpd 16B, 2-[5-(4-Sulfamoyl-phenyl)-pyridin-3-yl]-2,3-dihydro-benzo[1,4]dioxine-5-carboxylic acid amide] | 0.054 µM |
| CC(=O)N1CC(Oc2cncc(C3COc4c(cccc4C(N)=O)O3)c2)C1 (single isomer, unassigned) [Cpd 19A, 2-[5-(1-Acetyl-azetidin-3-yloxy)-pyridin-3-yl]-2,3-dihydro-benzo[1,4]dioxine-5-carboxylic acid amide] | > 30 µM |
| CC(=O)N1CC(Oc2cncc(C3COc4c(cccc4C(N)=O)O3)c2)C1 (single isomer, unassigned) [Cpd 19B, 2-[5-(1-Acetyl-azetidin-3-yloxy)-pyridin-3-yl]-2,3-dihydro-benzo[1,4]dioxine-5-carboxylic acid amide] | 24 µM |
| Cc1c(F)cncc1C1COc2c(cccc2C(N)=O)O1 (single isomer, unassigned) [Cpd 21A, 2-(5-Fluoro-4-methyl-pyridin-3-yl)-2,3-dihydro-benzo[1,4]dioxine-5-carboxylic acid amide] | 2.6 µM |
| Cc1c(F)cncc1C1COc2c(cccc2C(N)=O)O1 (single isomer, unassigned) [Cpd 21B, 2-(5-Fluoro-4-methyl-pyridin-3-yl)-2,3-dihydro-benzo[1,4]dioxine-5-carboxylic acid amide] | 5.3 µM |
| NC(=O)c1cccc2c1OCC(c1cncc(C(F)F)c1)O2 (single isomer, unassigned) [Cpd 22A, 2-(5-Difluoromethyl-pyridin-3-yl)-2,3-dihydro-benzo[1,4]dioxlne-5-carboxylic acid amide] | 2 µM |
| NC(=O)c1cccc2c1OCC(c1cncc(C(F)F)c1)O2 (single isomer, unassigned) [Cpd 22B, 2-(5-Difluoromethyl-pyridin-3-yl)-2,3-dihydro-benzo[1,4]dioxlne-5-carboxylic acid amide] | 2.3 µM |
| Cc1ccncc1C1COc2c(cccc2C(N)=O)O1 (single isomer, unassigned) [Cpd 23A, 2-(4-Methyl-pyridin-3-yl)-2,3-dihydro-benzo[1,4]dioxine-5-carboxylic acid amide] | 1.4 µM |
| Cc1ccncc1C1COc2c(cccc2C(N)=O)O1 (single isomer, unassigned) [Cpd 23B, 2-(4-Methyl-pyridin-3-yl)-2,3-dihydro-benzo[1,4]dioxine-5-carboxylic acid amide] | 2 µM |
| CN(C)C(=O)COCc1cncc(C2COc3c(cccc3C(N)=O)O2)c1 (single isomer, unassigned) [Cpd 25A, 2-(5-Dimethylcarbamoylmethoxymethyl-pyridin-3-yl)-2,3-dihydro-benzo[1,4]dioxine-5-carboxylic acid amide] | > 100 µM |
| CN(C)C(=O)COCc1cncc(C2COc3c(cccc3C(N)=O)O2)c1 (single isomer, unassigned) [Cpd 25B, 2-(5-Dimethylcarbamoylmethoxymethyl-pyridin-3-yl)-2,3-dihydro-benzo[1,4]dioxine-5-carboxylic acid amide] | 15 µM |
| Cc1c(C(C)O)cncc1C1COc2c(cccc2C(N)=O)O1 (single isomer, unassigned) [Cpd 27A, 2-[5-(1-Hydroxy-ethyl)-4-methyl-pyridin-3-yl]-2,3-dihydro-benzo[1,4]dioxine-5-carboxylic acid amide] | 2.8 µM |
| Cc1c(C(C)O)cncc1C1COc2c(cccc2C(N)=O)O1 (single isomer, unassigned) [Cpd 27B, 2-[5-(1-Hydroxy-ethyl)-4-methyl-pyridin-3-yl]-2,3-dihydro-benzo[1,4]dioxine-5-carboxylic acid amide] | 5 µM |
| CNC(=O)c1cccc2c1OCC(c1cncc(C(F)(F)F)c1)O2 (single isomer, unassigned) [Cpd 28A, 2-(5-Trifluoromethyl-pyridin-3-yl)-2,3-dihydro-benzo[1,4]dioxine-5-carboxylic acid methylamide] | > 30 µM |
| CNC(=O)c1cccc2c1OCC(c1cncc(C(F)(F)F)c1)O2 (single isomer, unassigned) [Cpd 28B, 2-(5-Trifluoromethyl-pyridin-3-yl)-2,3-dihydro-benzo[1,4]dioxine-5-carboxylic acid methylamide] | 6.1 µM |

Other lines, results leading:

| IC50 | SMILES |
| --- | --- |
| > 30 µM | CC(=O)N1CC[C@H](Oc2cncc(C3COc4c(cccc4C(N)=O)O3)c2)C1 (single isomer, unassigned) [Cpd 17A] |
| 18 µM | CC(=O)N1CC[C@H](Oc2cncc(C3COc4c(cccc4C(N)=O)O3)c2)C1 (single isomer, unassigned) [Cpd 17B] |
| 16 µM | CC(=O)N1CC[C@@H](Oc2cncc(C3COc4c(cccc4C(N)=O)O3)c2)C1 (single isomer, unassigned) [Cpd 18A] |
| 1.1 µM | CC(=O)N1CC[C@@H](Oc2cncc(C3COc4c(cccc4C(N)=O)O3)c2)C1 (single isomer, unassigned) [Cpd 18B] |
| 8.2 µM | NC(=O)c1cccc2c1OCC(c1cncc(CO)c1)O2 (single isomer, unassigned) [Cpd 20A, 2-(5-Hydroxymethyl-pyridin-3-yl)-2,3-dihydro-benzo[1,4]dioxine-5-carboxylic acid amide] |
| 6.8 µM | NC(=O)c1cccc2c1OCC(c1cncc(CO)c1)O2 (single isomer, unassigned) [Cpd 20B, 2-(5-Hydroxymethyl-pyridin-3-yl)-2,3-dihydro-benzo[1,4]dioxine-5-carboxylic acid amide] |
| 7 µM | CN(Cc1cncc(C2COc3c(cccc3C(N)=O)O2)c1)C(=O)C1CC1 (single isomer, unassigned) [Cpd 24A, 2-{5-[(Cyclopropanecarbonyl-methyl-amino)-methyl]-pyridin-3-yl}-2,3-dihydro-benzo[1,4]dioxine-5-carboxylic acid amide] |
| 25 µM | CN(Cc1cncc(C2COc3c(cccc3C(N)=O)O2)c1)C(=O)C1CC1 (single isomer, unassigned) [Cpd 24B, 2-{5-[(Cyclopropanecarbonyl-methyl-amino)-methyl]-pyridin-3-yl}-2,3-dihydro-benzo[1,4]dioxine-5-carboxylic acid amide] |
| 1.8 µM | NC(=O)c1cccc2c1OCC(c1cncc(C3(O)CCC3)c1)O2 (single isomer, unassigned) [Cpd 26A, 2-[5-(1-Hydroxy-cyclobutyl)-pyridin-3-yl]-2,3-dihydro-benzo[1,4]dioxine-5-carboxylic acid amide] |
| 0.67 µM | NC(=O)c1cccc2c1OCC(c1cncc(C3(O)CCC3)c1)O2 (single isomer, unassigned) [Cpd 26B, 2-[5-(1-Hydroxy-cyclobutyl)-pyridin-3-yl]-2,3-dihydro-benzo[1,4]dioxine-5-carboxylic acid amide] |
| 22 µM | CN(C)C(=O)Cc1cncc(C2COc3c(cccc3C(N)=O)O2)c1 (single isomer, unassigned) [Cpd 29A, 2-[5-[2-(Dimethylamino)-2-oxo-ethyl]-3-pyridyl]-2,3-dihydro-1,4-benzodioxine-5-carboxamide] |
| > 30 µM | CN(C)C(=O)Cc1cncc(C2COc3c(cccc3C(N)=O)O2)c1 (single isomer, unassigned) [Cpd 29B, 2-[5-[2-(Dimethylamino)-2-oxo-ethyl]-3-pyridyl]-2,3-dihydro-1,4-benzodioxine-5-carboxamide] |
| 22 µM | NC(=O)c1cccc2c1OCC(c1cncc(CC(=O)N3CCC(F)(F)CC3)c1)O2 (single isomer, unassigned) [Cpd 30A, 2-{5-[2-(4,4-Difluoro-piperidin-1-yl)-2-oxo-ethyl]-pyridin-3-yl}-2,3-dihydro-benzo[1,4]dioxine-5-carboxylic acid amide] |
| 24 µM | NC(=O)c1cccc2c1OCC(c1cncc(CC(=O)N3CCC(F)(F)CC3)c1)O2 (single isomer, unassigned) [Cpd 30B, 2-{5-[2-(4,4-Difluoro-piperidin-1-yl)-2-oxo-ethyl]-pyridin-3-yl}-2,3-dihydro-benzo[1,4]dioxine-5-carboxylic acid amide] |
| > 30 µM | NC(=O)c1cccc2c1OCC(c1cncc(CN3CCOC3=O)c1)O2 (single isomer, unassigned) [Cpd 31A, 2-[5-(2-Oxo-oxazolidin-3-ylmethyl)-pyridin-3-yl]-2,3-dihydro-benzo[1,4]dioxine-5-carboxylic acid amide] |
| > 30 µM | NC(=O)c1cccc2c1OCC(c1cncc(CN3CCOC3=O)c1)O2 (single isomer, unassigned) [Cpd 31B, 2-[5-(2-Oxo-oxazolidin-3-ylmethyl)-pyridin-3-yl]-2,3-dihydro-benzo[1,4]dioxine-5-carboxylic acid amide] |
| 6 µM | NC(=O)c1cccc2c1OCC(c1cncc(C3(F)CCOCC3)c1)O2 (single isomer, unassigned) [Cpd 32A, 2-[5-(4-Fluoro-tetrahydro-pyran-4-yl)-pyridin-3-yl]-2,3-dihydro-benzo[1,4]dioxine-5-carboxylic acid amide] |
